Values of other authors as cited in patent publication US20230201309A1, “COMPOSITIONS FOR THE TREATMENT OF A RESPIRATORY CONDITION” (VECTURA LIMITED, priority 2020, published 2023).

Test system: COVID-19

For `CCN(CCO)CCCC(C)Nc1ccnc2cc(Cl)ccc12` (centres unmarked) [hydroxychloroquine sulphate], the Hospital mortality (hospitalised COVID-19 patients, hydroxychloroquine sulphate monotherapy plus supportive care, total dose 2400 mg, 804/4,542 patients) is listed as 17.7% and the “mortality, adjusted hazard ratio (aHR) vs no-hydroxychloroquine sulphate group” value (multivariate analysis, 95% CI 0.617-0.758) is listed as 0.684.
